From patent US11919901B2 (Syndax Pharmaceuticals, Inc., priority 2021, dated 2024)

Target: Menin-MLL (Homo sapiens (Human), UniProt O00255)
Assay: Determination of binding constants (Ki) to Menin-MLL (HTRF)
Settings: HTRF, 0.25 nM H-FL-Menin, 3.2 nM FITC-MLL-4-43, 24 hr incubation; for Ki: read-out: Menin-MLL Ki HTRF Assay: Ki

Menin-MLL, sequence (O00255 whole entry): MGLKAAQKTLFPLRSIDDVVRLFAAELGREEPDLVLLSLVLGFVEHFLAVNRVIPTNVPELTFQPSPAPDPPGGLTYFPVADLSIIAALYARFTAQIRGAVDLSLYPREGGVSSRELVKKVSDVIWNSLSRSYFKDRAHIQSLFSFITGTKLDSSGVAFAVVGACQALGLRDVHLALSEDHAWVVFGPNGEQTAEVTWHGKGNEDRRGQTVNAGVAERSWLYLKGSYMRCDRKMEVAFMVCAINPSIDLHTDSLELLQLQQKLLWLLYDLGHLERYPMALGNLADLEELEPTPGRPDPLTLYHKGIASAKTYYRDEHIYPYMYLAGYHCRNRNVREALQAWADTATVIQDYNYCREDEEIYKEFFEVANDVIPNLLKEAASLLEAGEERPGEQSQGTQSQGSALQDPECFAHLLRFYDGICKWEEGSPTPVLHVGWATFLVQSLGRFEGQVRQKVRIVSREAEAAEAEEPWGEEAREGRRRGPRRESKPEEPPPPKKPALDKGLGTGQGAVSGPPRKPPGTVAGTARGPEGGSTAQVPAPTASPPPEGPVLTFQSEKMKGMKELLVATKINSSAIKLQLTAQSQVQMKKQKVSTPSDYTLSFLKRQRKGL

SMILES | Ki [nM] | EC50 [nM]
CC(C)N(C(=O)c1cc(F)ccc1Oc1cncnc1N1CC2(CCN(C[C@@H]3CC[C@@H](NS(=N)(=O)c4ccccc4)CO3)CC2)C1)C(C)C (mixture of isomers) [Compound 228, 5-Fluoro-N,N-diisopropyl-2-((4-(7-(((2S,5R)-5-(phenylsulfonoamidimidamido)tetrahydro-2H-pyran-2-yl)methyl)-2,7-diazaspiro[3.5]nonan-2-yl)pyrimidin-5-yl)oxy)benzamide] | < 1 | –
CC[S@@](=N)(=O)N[C@@H]1CC[C@@H](CN2CCC3(CC2)CN(c2ncncc2Oc2ccc(F)cc2C(=O)N(C(C)C)C(C)C)C3)OC1 (single isomer, unassigned) [Compound 226] | < 1 | –
CC[S@](=N)(=O)N[C@@H]1CC[C@@H](CN2CCC3(CC2)CN(c2ncncc2Oc2ccc(F)cc2C(=O)N(C(C)C)C(C)C)C3)OC1 (single isomer, unassigned) [Compound 227] | < 1 | –
CC(C)N(C(=O)c1cc(F)ccc1Oc1cncnc1N1CC2(CCN(C[C@@H]3CC[C@@H](N[S@@](=N)(=O)c4ccccc4)CO3)CC2)C1)C(C)C (single isomer, unassigned) [Compound 229] | < 1 | –
CC(C)N(C(=O)c1cc(F)ccc1Oc1cncnc1N1CC2(CCN(C[C@@H]3CC[C@@H](N[S@](=N)(=O)c4ccccc4)CO3)CC2)C1)C(C)C (single isomer, unassigned) [Compound 230] | < 1 | –
CCS(=O)(=O)N[C@@H]1CC[C@@H](CN2CCC3(CC2)CN(c2ncncc2Oc2ccc(F)cc2C(=O)N(C(C)C)[C@@H]2CC[C@H]2O)C3)OC1 (single isomer, unassigned) [Compound 256] | < 1 | < 50
CCS(=O)(=O)N[C@@H]1CC[C@@H](CN2CCC3(CC2)CN(c2ncncc2Oc2ccc(F)cc2C(=O)N(C(C)C)[C@H]2CC[C@@H]2O)C3)OC1 (single isomer, unassigned) [Compound 257] | < 1 | < 50
CCN(C(=O)c1cc(F)ccc1Oc1cncnc1N1CC2(CCN(C[C@H]3CC[C@H](NS(=O)(=O)CC)CO3)CC2)C1)C(C)C (stereo in doubt) [Compound 52, N-ethyl-2-((4-(7-(((2R,5S)-5-(ethylsulfonamido)tetrahydro-2H-pyran-2-yl)methyl)-2,7-diazaspiro[3.5]nonan-2-yl)pyrimidin-5-yl)oxy)-5-fluoro-N-isopropylbenzamide] | – | < 50
CNS(=O)(=O)N[C@H]1CC[C@H](CN2CCC3(CC2)CN(c2ncncc2Oc2ccc(F)cc2C(=O)N(C(C)C)C2CC2)C3)OC1 (stereo in doubt) [Compound 146, N-Cyclopropyl-5-fluoro-N-isopropyl-2-((4-(7-(((2R,5S)-5-((N-methylsulfamoyl)amino)tetrahydro-2H-pyran-2-yl)methyl)-2,7-diazaspiro[3.5]nonan-2-yl)pyrimidin-5-yl)oxy)benzamide] | < 1 | –
CC(C)N(CC(F)(F)F)C(=O)c1cc(F)ccc1Oc1nncnc1N1CC2(CCN(C[C@H]3CC[C@H](NS(=O)(=O)N4CCC4)CO3)CC2)C1 (stereo in doubt) [Compound 194, 2-((5-(7-(((2R,5S)-5-(Azetidine-1-sulfonamido)tetrahydro-2H-pyran-2-yl)methyl)-2,7-diazaspiro[3.5]nonan-2-yl)-1,2,4-triazin-6-yl)oxy)-5-fluoro-N-isopropyl-N-(2,2,2-trifluoroethyl)benzamide] | < 1 | –
CCN(C(=O)c1cc(F)ccc1Oc1cncnc1N1CC2(CCN(C[C@@H]3CC[C@@H](NS(=O)(=O)C(C)C)CO3)CC2)C1)C(C)C [Compound 3, N-ethyl-5-fluoro-N-isopropyl-2-((4-(7-(((2S,5R)-5-((1-methylethyl)sulfonamido)tetrahydro-2H-pyran-2-yl)methyl)-2,7-diazaspiro[3.5]nonan-2-yl)pyrimidin-5-yl)oxy)benzamide] | < 1 | < 50
CCN(C(=O)c1cc(F)ccc1Oc1cncnc1N1CC2(CCN(C[C@@H]3CC[C@@H](NS(=O)(=O)C4COC4)CO3)CC2)C1)C(C)C [Compound 5, N-ethyl-5-fluoro-N-isopropyl-2-((4-(7-(((2S,5R)-5-(oxetane-3-sulfonamido)tetrahydro-2H-pyran-2-yl)methyl)-2,7-diazaspiro[3.5]nonan-2-yl)pyrimidin-5-yl)oxy)benzamide] | < 1 | < 50
CCN(C(=O)c1cc(F)ccc1Oc1cncnc1N1CC2(CCN(C[C@@H]3CC[C@@H](NS(=O)(=O)CC4CC4)CO3)CC2)C1)C(C)C [Compound 7, 2-((4-(7-(((2S,5R)-5-((cyclopropylmethyl)sulfonamido)tetrahydro-2H-pyran-2-yl)methyl)-2,7-diazaspiro[3.5]nonan-2-yl)pyrimidin-5-yl)oxy)-N-ethyl-5-fluoro-N-isopropylbenzamide] | < 1 | < 50
CCN(C(=O)c1cc(F)ccc1Oc1cncnc1N1CC2(CCN(C[C@@H]3CC[C@@H](NS(=O)(=O)CCOC)CO3)CC2)C1)C(C)C [Compound 8, N-ethyl-5-fluoro-N-isopropyl-2-((4-(7-(((2S,5R)-5-((2-methoxyethyl)sulfonamido)tetrahydro-2H-pyran-2-yl)methyl)-2,7-diazaspiro[3.5]nonan-2-yl)pyrimidin-5-yl)oxy)benzamide] | < 1 | < 50
CCCS(=O)(=O)N[C@@H]1CC[C@@H](CN2CCC3(CC2)CN(c2ncncc2Oc2ccc(F)cc2C(=O)N(CC)C(C)C)C3)OC1 [Compound 9, N-ethyl-5-fluoro-N-isopropyl-2-((4-(7-(((2S,5R)-5-(propylsulfonamido)tetrahydro-2H-pyran-2-yl)methyl)-2,7-diazaspiro[3.5]nonan-2-yl)pyrimidin-5-yl)oxy)benzamide] | < 1 | < 50
CCN(C(=O)c1cc(F)ccc1Oc1cncnc1N1CC2(CCN(C[C@@H]3CC[C@@H](NS(=O)(=O)C4CCOC4)CO3)CC2)C1)C(C)C (stereo partly drawn) [Compound 10, N-ethyl-5-fluoro-N-isopropyl-2-((4-(7-(((2S,5R)-5-((tetrahydrofuran)-3-sulfonamido)tetrahydro-2H-pyran-2-yl)methyl)-2,7-diazaspiro[3.5]nonan-2-yl)pyrimidin-5-yl)oxy)benzamide] | < 1 | < 50
CC(C)N(C(=O)c1cc(F)ccc1Oc1cncnc1N1CC2(CCN(C[C@@H]3CC[C@@H](NC(=O)OC(C)(C)C)CO3)CC2)C1)C1CC1 [Compound 17, tert-butyl ((3R,6S)-6-((2-(5-(2-(cyclopropyl(isopropyl)carbamoyl)-4-fluorophenoxy)pyrimidin-4-yl)-2,7-diazaspiro[3.5]nonan-7-yl)methyl)tetrahydro-2H-pyran-3-yl)carbamate] | < 1 | < 50
CC(C)N(C(=O)c1cc(F)ccc1Oc1cncnc1N1CC2(CCN(C[C@@H]3CC[C@@H](NS(C)(=O)=O)CO3)CC2)C1)C1CC1 [Compound 18, N-cyclopropyl-5-fluoro-N-isopropyl-2-((4-(7-(((2S,5R)-5-(methylsulfonamido)tetrahydro-2H-pyran-2-yl)methyl)-2,7-diazaspiro[3.5]nonan-2-yl)pyrimidin-5-yl)oxy)benzamide] | < 1 | < 50
CC(C)N(C(=O)c1cc(F)ccc1Oc1cncnc1N1CC2(CCN(C[C@@H]3CC[C@@H](NS(=O)(=O)C(C)C)CO3)CC2)C1)C1CC1 [Compound 20, N-cyclopropyl-5-fluoro-N-isopropyl-2-((4-(7-(((2S,5R)-5-((1-methylethyl)sulfonamido)tetrahydro-2H-pyran-2-yl)methyl)-2,7-diazaspiro[3.5]nonan-2-yl)pyrimidin-5-yl)oxy)benzamide] | < 1 | < 50
CC(C)N(C(=O)c1cc(F)ccc1Oc1cncnc1N1CC2(CCN(C[C@@H]3CC[C@@H](NS(=O)(=O)C4COC4)CO3)CC2)C1)C1CC1 [Compound 22, N-cyclopropyl-5-fluoro-N-isopropyl-2-((4-(7-(((2S,5R)-5-(oxetane-3-sulfonamido)tetrahydro-2H-pyran-2-yl)methyl)-2,7-diazaspiro[3.5]nonan-2-yl)pyrimidin-5-yl)oxy)benzamide] | < 1 | < 50
C[C@@H]1COC[C@H](C)N1C(=O)c1cc(F)ccc1Oc1cncnc1N1CC2(CCN(C[C@@H]3CC[C@@H](NS(C)(=O)=O)CO3)CC2)C1 [Compound 23, N-((3R,6S)-6-((2-(5-(2-((3S,5R)-3,5-dimethylmorpholine-4-carbonyl)-4-fluorophenoxy)pyrimidin-4-yl)-2,7-diazaspiro[3.5]nonan-7-yl)methyl)tetrahydro-2H-pyran-3-yl)methanesulfonamide] | < 1 | < 50
CCS(=O)(=O)N[C@@H]1CC[C@@H](CN2CCC3(CC2)CN(c2ncncc2Oc2ccc(F)cc2C(=O)N2[C@H](C)COC[C@@H]2C)C3)OC1 [Compound 24, N-((3R,6S)-6-((2-(5-(2-((3S,5R)-3,5-dimethylmorpholine-4-carbonyl)-4-fluorophenoxy)pyrimidin-4-yl)-2,7-diazaspiro[3.5]nonan-7-yl)methyl)tetrahydro-2H-pyran-3-yl)ethanesulfonamide] | < 1 | < 50
CC(C)S(=O)(=O)N[C@@H]1CC[C@@H](CN2CCC3(CC2)CN(c2ncncc2Oc2ccc(F)cc2C(=O)N2[C@H](C)COC[C@@H]2C)C3)OC1 [Compound 25, N-((3R,6S)-6-((2-(5-(2-((3S,5R)-3,5-dimethylmorpholine-4-carbonyl)-4-fluorophenoxy)pyrimidin-4-yl)-2,7-diazaspiro[3.5]nonan-7-yl)methyl)tetrahydro-2H-pyran-3-yl)propane-2-sulfonamide] | < 1 | < 50
C[C@@H]1COC[C@H](C)N1C(=O)c1cc(F)ccc1Oc1cncnc1N1CC2(CCN(C[C@@H]3CC[C@@H](NS(=O)(=O)C4CC4)CO3)CC2)C1 [Compound 26, N-((3R,6S)-6-((2-(5-(2-((3S,5R)-3,5-dimethylmorpholine-4-carbonyl)-4-fluorophenoxy)pyrimidin-4-yl)-2,7-diazaspiro[3.5]nonan-7-yl)methyl)tetrahydro-2H-pyran-3-yl)cyclopropanesulfonamide] | < 1 | < 50
